Laboratory results published in US20110016579A1, “Gene of transporter selective to mugineic acid-iron complex” (SUNTORY LIMITED, priority 2005, published 2011).

Experiments:
HvYS1 [1] = experiment: Growth of fet3fet4 yeast (DDY4 strain) expressing HvYS1 on different iron sources; format: cell-based, barley (Hordeum vulgare L.); conditions: 30° C., 4 days
Source text: Since DDY4 strain is an yeast that is defective in the divalent iron-absorption system, is unable to grow in an iron-limiting medium (Eide, D. et al., Proc. Natl. Acad. Sci. USA, 1996, vol. 93, pp. 5624-5628) and is unable to grow by taking advantage of mugineic acid-iron (III) complex (Loulergue, C., Gene 1998, vol. 225, pp. 47-57), the yeast having an activity power for selectively absorbing mugineic acid-iron complex can grow on a medium supplemented with mugineic acid-iron(III) complex but the yeast having no above-mentioned activity power cannot grow on the medium.
(§1) Since double mutant fet3fet4 (DDY4 strain) of budding yeast (Saccharomyces cerevisiae) is defective in two genes responsible for absorption of divalent iron (fet3 (a gene for absorbing divalent iron after converting trivalent iron into divalent iron) and fet4 (a gene for absorbing divalent iron as it is)), the yeast can grow neither on an iron-limiting medium (Eide, D. et al., Proc. Natl. Acad. Sci. USA, 1996, vol. 93, pp. 5624-5628) nor by taking advantage of iron complexed with mugineic acid (Loulergue, C., Gene, 1998, vol. 225, pp. 47-57). To investigate the function of HvYS1 in iron transport, the present inventors have studied, using DDY4 strain into which HvYS1 cDNA has been introduced, whether the DDY4 strain in which the gene is expressed is able to grow on a medium containing Fe(III).MA as sole source of iron.
The following three plasmids were independently introduced into each of DDY4 strain and DY1457 (wild) strain: (1) a plasmid into which HvYS1 cDNA cloned at the NotI site of the expression vector pFL61 (by ATCC Co.) was inserted; (2) a plasmid into which ZmYS1 cDNA (Curie, C. et al., Nature, 2001, vol. 49, pp. 346-349) cloned in the same pFL61 vector was inserted; and (3) the pFL61 vector as a reference into which none of the above-mentioned genes was inserted.
Subsequently, the inventors conducted cultivation tests by mixing three different iron sources, or Fe(III).citrate, Fe(III).MA, and Fe(III).NA, with the medium in order to determine substrate selectivity, if any, of HvYS1. The yeast was cultivated in minimum media—Ura supplemented with 50 μM Fe(III).citrate, 10 μM Fe(III).MA, or 10 μM Fe(II).NA, and 10 μM FeCl2 or FeCl3 as a blank. Also, 10 μM of BPDS that is a potent chelating agent of divalent iron was added to the medium supplemented with 10 μM of Fe(III).MA in order to investigate whether the growth of the yeast is inhibited. Fe(III).MA was prepared according to von Wiren, N. et al. , Biochem. Biophys. Acta, 1998, vol. 1371, pp. 143-155. Nicotinamine was purchased from T. Hasegawa Co., and Fe(II).NA was prepared according to Schaaf, G. et al. , J. Biol. Chem., 2004, vol. 279, pp. 9091-9096. The yeast was cultivated at 30° C. for 4 days. Three solutions of the yeast culture (diluted to optical densities (OD) of 0.2, 0.02 and 0.002, respectively, at a wavelength of 600 nm) were spotted on a plate.

ZmYS1 = biological target: T1, ZmYS1 (Zea mays, UniProt Q9AY27); experiment: Growth of fet3fet4 yeast (DDY4 strain) expressing ZmYS1 on different iron sources; format: cell-based, maize; conditions: DDY4 strain expressing ZmYS1, 10 μM, FIG. 3
T1 construct: expressed in transfected cells; host or cells: Saccharomyces cerevisiae fet3fet4 double mutant (DDY4 strain), vector pFL61
T1 sequence (Q9AY27 1-682): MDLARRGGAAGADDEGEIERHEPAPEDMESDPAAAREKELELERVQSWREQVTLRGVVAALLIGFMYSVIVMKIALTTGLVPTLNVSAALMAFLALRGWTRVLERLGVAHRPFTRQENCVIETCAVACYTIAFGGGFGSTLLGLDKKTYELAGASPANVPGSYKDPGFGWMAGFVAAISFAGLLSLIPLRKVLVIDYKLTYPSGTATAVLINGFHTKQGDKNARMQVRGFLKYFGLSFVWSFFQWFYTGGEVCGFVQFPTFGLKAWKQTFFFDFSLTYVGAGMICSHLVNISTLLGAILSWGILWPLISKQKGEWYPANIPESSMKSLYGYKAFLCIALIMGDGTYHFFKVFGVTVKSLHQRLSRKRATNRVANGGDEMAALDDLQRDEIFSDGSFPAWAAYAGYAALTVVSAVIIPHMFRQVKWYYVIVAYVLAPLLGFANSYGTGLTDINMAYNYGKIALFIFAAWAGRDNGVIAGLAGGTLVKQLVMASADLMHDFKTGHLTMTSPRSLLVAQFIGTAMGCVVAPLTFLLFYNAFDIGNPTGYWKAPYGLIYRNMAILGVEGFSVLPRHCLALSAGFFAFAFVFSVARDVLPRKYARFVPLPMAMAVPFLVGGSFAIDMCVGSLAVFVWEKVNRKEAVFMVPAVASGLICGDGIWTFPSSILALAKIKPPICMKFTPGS
Source text: as §1
The following three plasmids were independently introduced into each of DDY4 strain and DY1457 (wild) strain: (1) a plasmid into which HvYS1 cDNA cloned at the NotI site of the expression vector pFL61 (by ATCC Co.) was inserted; (2) a plasmid into which ZmYS1 cDNA (Curie, C. et al., Nature, 2001, vol. 49, pp. 346-349) cloned in the same pFL61 vector was inserted; and (3) the pFL61 vector as a reference into which none of the above-mentioned genes was inserted. […]

HvYS1 [2] = experiment: Electrophysiological activity (voltage clamp) in HvYS1-expressing Xenopus oocyte cells; format: cell-based, barley (Hordeum vulgare L.); conditions: final concentration of 50 μM, fixed voltage of −60 mV; compared with other mugineic acid-metal complexes and nicotianamine Fe(II) complex
Source text: The activity power for selectively absorbing mugineic acid-iron complex may be also confirmed by observing cell membrane voltage changes using Xenopus oocyte cells. The voltage change of the cell membrane may be obtained by directly measuring the voltage difference between the inside and outside of the cell membrane by, for example, a membrane voltage clamp method, wherein the voltage change of the oocyte cell membrane occurs in accordance with the absorption of mugineic acid-iron complex via the transporter protein expressed in the oocyte cell after adding a solution containing mugineic acid-iron complex to the oocyte cell into which the transporter gene of the invention has been introduced. […]
Subsequently, the inventors have formed mugineic acid complexes of copper, zinc, nickel, manganese, and cobalt as substrates other than Fe(III).MA as in the case of iron in order to determine substrate selectivity, if any, of HvYS1 protein. The oocyte cells in which HvYS1 is expressed were set in a chamber filled with the ND-96 solution, and electrophysiological activity was measured after spraying 10 μL of each 5 mM substrate (final concentration of 50 μM). […] ORIGIN 6.1 software (by Microcal Software Co.) was used for programming and storage of voltage, and analysis of the recorded and stored data. […]
Target sequence in this assay (as listed by the source): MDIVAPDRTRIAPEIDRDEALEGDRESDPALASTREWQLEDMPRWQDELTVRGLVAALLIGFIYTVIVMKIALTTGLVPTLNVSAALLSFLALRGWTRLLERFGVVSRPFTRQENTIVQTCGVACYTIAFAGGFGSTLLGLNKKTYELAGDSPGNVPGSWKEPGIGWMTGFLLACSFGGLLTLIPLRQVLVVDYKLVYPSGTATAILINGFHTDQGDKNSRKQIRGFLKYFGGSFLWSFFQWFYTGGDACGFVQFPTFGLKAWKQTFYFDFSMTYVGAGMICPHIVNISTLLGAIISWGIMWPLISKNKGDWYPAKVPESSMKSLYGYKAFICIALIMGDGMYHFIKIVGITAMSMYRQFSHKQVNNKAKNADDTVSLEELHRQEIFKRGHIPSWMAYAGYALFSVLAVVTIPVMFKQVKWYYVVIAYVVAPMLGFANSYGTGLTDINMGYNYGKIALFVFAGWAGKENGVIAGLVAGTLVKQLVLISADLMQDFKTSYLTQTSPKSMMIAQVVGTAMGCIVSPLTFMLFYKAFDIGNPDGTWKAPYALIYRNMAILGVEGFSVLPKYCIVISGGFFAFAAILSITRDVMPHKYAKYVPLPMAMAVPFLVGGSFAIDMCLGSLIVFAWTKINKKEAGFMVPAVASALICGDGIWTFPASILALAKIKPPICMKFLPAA

Molecule | growth of DDY4 strain expressing HvYS1 with the substance as sole iron source (HvYS1 [1]; 10 μM in minimum media -Ura) | transport of the iron complex by ZmYS1 (ZmYS1) | growth of DDY4 strain expressing HvYS1 with the substance as sole iron source (HvYS1 [1]; 50 μM in minimum media -Ura) | growth of DDY4 strain expressing HvYS1 in the presence of BPDS (HvYS1 [1]; 10 μM Fe(III).MA plus 10 μM BPDS (Fe(II) chelating agent)) | voltage change in HvYS1-expressing oocyte cells (HvYS1 [2])
nicotianamine-iron complex [Fe(II).NA] | does not absorb Fe(II).NA, or growth was strongly inhibited | transports |  |  | 
citric acid-iron complex (iron-ammonium citrate complex) [Fe(III).citrate] |  |  | did not grow |  | 
[Cl][Fe]([Cl])[Cl] [FeCl3] | did not grow |  |  |  | 
mugineic acid-iron(III) complex [Fe(III).MA] | grew at the same level as DDY4 strain expressing ZmYS1 | transports |  | grew | overwhelmingly strong voltage change
[Cl][Fe][Cl] [FeCl2] | did not grow |  |  |  | 
